Assays:
Experiment in all cases: Kinase selectivity assay
Format in all cases: biochemical
PTK2B = target: T1, PTK2B (Homo sapiens, UniProt Q14289); conditions: target PTK2B; read-out: CP1 IC50
T1 construct: assay run by ICE Biosciences (Beijing, China)
Experimental: (§1) The selectivity of CP1 for PRDX1 was evaluated through kinase selectivity assays against other PRDX family members and a panel of kinases. The experiments were conducted by ICE Biosciences (Beijing, China).

LTK = LTK (Homo sapiens, UniProt P29376); conditions: target LTK; read-out: CP1 IC50
Experimental: as §1

ERBB4 = ERBB4 (Homo sapiens, UniProt Q15303); conditions: target ERBB4; read-out: CP1 IC50
Experimental: as §1

EPHB2 = EPHB2 (Homo sapiens, UniProt P29323); conditions: target EPHB2; read-out: CP1 IC50
Experimental: as §1

LYN = LYN (Homo sapiens, UniProt P07948); conditions: target LYN; read-out: CP1 IC50
Experimental: as §1

FER = FER (Homo sapiens, UniProt P16591); conditions: target FER; read-out: CP1 IC50
Experimental: as §1

DDR2 = target: T2, DDR2 (Homo sapiens, UniProt Q16832)
T2 construct: ICE Biosciences (Beijing, China), ran the assays
Experimental: as §1

SRC = target: T3, SRC (Homo sapiens, UniProt P12931); conditions: target SRC; read-out: CP1 IC50
T3 construct: assay run by ICE Biosciences (Beijing, China)
Experimental: as §1

EPHB3 = EPHB3 (Homo sapiens, UniProt P54753); conditions: target EPHB3; read-out: CP1 IC50
Experimental: as §1

INSR = INSR (Homo sapiens, UniProt P06213); conditions: target INSR; read-out: CP1 IC50
Experimental: as §1

PTK2 = target: T4, PTK2 (Homo sapiens, UniProt Q05397); conditions: target PTK2; read-out: CP1 IC50
T4 construct: assay run by ICE Biosciences (Beijing, China)
Experimental: as §1

TEC = target: T5, TEC (Homo sapiens, UniProt P42680); conditions: target TEC; read-out: CP1 IC50
T5 construct: assay run by ICE Biosciences (Beijing, China)
Experimental: as §1

NTRK2 = NTRK2 (Homo sapiens, UniProt Q16620)
Experimental: as §1

MERTK = MERTK (Homo sapiens, UniProt Q12866); conditions: target MERTK; read-out: CP1 IC50
Experimental: as §1

ZAP70 = target: T6, ZAP70 (Homo sapiens, UniProt P43403); conditions: target ZAP70; read-out: CP1 IC50
T6 construct: ICE Biosciences (Beijing, China), a contract laboratory that ran the assay
Experimental: as §1

CSF1R = target: T7, CSF1R (Homo sapiens, UniProt P07333); conditions: target CSF1R; read-out: CP1 IC50
T7 construct: ICE Biosciences (Beijing, China), ran the assays
Experimental: as §1

RET = target: T8, RET (Homo sapiens, UniProt P07949); conditions: target RET; read-out: CP1 IC50
T8 construct: assay run by ICE Biosciences (Beijing, China)
Experimental: as §1

FGFR1 = target: T9, FGFR1 (Homo sapiens, UniProt P11362); conditions: target FGFR1; read-out: CP1 IC50
T9 construct: assay run by ICE Biosciences (Beijing, China)
Experimental: as §1

BTK = target: T10, BTK (Homo sapiens, UniProt Q06187); conditions: target BTK; read-out: CP1 IC50
T10 construct: ICE Biosciences (Beijing, China), ran the assays
Experimental: as §1

FRK = target: T11, FRK (Homo sapiens, UniProt P42685); conditions: target FRK; read-out: CP1 IC50
T11 construct: assay run by ICE Biosciences (Beijing, China)
Experimental: as §1

EPHA8 = EPHA8 (Homo sapiens, UniProt P29322); conditions: target EPHA8; read-out: CP1 IC50
Experimental: as §1

KDR = KDR (Homo sapiens, UniProt P35968); conditions: target KDR; read-out: CP1 IC50
Experimental: as §1

MET = MET (Homo sapiens, UniProt P08581); conditions: target MET; read-out: CP1 IC50
Experimental: as §1

FES = target: T12, FES (Homo sapiens, UniProt P07332); conditions: target FES; read-out: CP1 IC50
T12 construct: assay run by ICE Biosciences (Beijing, China)
Experimental: as §1

EPHB1 = EPHB1 (Homo sapiens, UniProt P54762)
Experimental: as §1

PRDX2 = target: T13, PRDX2 (Homo sapiens, UniProt P32119); conditions: target PRDX2; read-out: CP1 IC50
T13 construct: ICE Biosciences (Beijing, China), ran the assays
Experimental: as §1

DDR1 = target: T14, DDR1 (Homo sapiens, UniProt Q08345); conditions: target DDR1; read-out: CP1 IC50
T14 construct: ICE Biosciences (Beijing, China), ran the assays
Experimental: as §1

FLT1 = target: T15, FLT1 (Homo sapiens, UniProt P17948); conditions: target FLT1; read-out: CP1 IC50
T15 construct: assay run by ICE Biosciences (Beijing, China)
Experimental: as §1

TEK = target: T16, TEK (Homo sapiens, UniProt Q02763); conditions: target TEK; read-out: CP1 IC50
T16 construct: assay run by ICE Biosciences (Beijing, China)
Experimental: as §1

TYK2 = target: T17, TYK2 (Homo sapiens, UniProt P29597); conditions: target TYK2; read-out: CP1 IC50
T17 construct: ICE Biosciences (Beijing, China), a contract laboratory that ran the assay
Experimental: as §1

JAK1 = JAK1 (Homo sapiens, UniProt P23458); conditions: target JAK1; read-out: CP1 IC50
Experimental: as §1

NTRK3 = target: T18, NTRK3 (Homo sapiens, UniProt Q16288)
T18 construct: assay run by ICE Biosciences (Beijing, China)
Experimental: as §1

MUSK = MUSK (Homo sapiens, UniProt O15146); conditions: target MUSK; read-out: CP1 IC50
Experimental: as §1

EPHA1 = target: T19, EPHA1 (Homo sapiens, UniProt P21709); conditions: target EPHA1; read-out: CP1 IC50
T19 construct: ICE Biosciences (Beijing, China), ran the assays
Experimental: as §1

PRDX3 = target: T20, PRDX3 (Homo sapiens, UniProt P30048); conditions: target PRDX3; read-out: CP1 IC50
T20 construct: ICE Biosciences (Beijing, China), ran the assays
Experimental: as §1

Measured: IC50

T12 sequence (P07332 whole entry): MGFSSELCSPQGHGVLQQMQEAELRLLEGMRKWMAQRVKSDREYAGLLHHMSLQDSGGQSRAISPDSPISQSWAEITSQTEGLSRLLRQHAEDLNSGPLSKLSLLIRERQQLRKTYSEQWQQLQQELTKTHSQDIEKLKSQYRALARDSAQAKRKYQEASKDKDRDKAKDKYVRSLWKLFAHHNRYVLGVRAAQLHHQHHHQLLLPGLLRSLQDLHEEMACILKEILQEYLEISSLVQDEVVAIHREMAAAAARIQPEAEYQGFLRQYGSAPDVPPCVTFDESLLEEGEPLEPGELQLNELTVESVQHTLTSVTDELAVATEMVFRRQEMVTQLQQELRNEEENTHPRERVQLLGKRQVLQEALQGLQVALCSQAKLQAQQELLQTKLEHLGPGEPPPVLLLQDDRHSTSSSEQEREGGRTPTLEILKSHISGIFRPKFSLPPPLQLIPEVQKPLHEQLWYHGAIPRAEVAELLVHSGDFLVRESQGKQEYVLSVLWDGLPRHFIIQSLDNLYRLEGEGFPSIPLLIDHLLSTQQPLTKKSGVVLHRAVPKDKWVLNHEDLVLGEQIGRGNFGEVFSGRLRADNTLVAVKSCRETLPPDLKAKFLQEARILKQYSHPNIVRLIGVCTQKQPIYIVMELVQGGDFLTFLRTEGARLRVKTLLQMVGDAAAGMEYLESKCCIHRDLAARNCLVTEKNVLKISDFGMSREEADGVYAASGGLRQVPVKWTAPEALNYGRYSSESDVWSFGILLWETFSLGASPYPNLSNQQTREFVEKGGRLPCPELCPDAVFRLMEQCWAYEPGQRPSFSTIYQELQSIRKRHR
T20 sequence (P30048 62-256): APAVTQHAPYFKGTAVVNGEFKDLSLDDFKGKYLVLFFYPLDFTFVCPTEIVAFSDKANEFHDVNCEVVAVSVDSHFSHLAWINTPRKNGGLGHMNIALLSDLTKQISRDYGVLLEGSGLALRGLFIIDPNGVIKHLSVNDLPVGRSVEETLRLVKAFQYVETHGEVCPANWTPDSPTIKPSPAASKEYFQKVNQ
T19 sequence (P21709 26-976): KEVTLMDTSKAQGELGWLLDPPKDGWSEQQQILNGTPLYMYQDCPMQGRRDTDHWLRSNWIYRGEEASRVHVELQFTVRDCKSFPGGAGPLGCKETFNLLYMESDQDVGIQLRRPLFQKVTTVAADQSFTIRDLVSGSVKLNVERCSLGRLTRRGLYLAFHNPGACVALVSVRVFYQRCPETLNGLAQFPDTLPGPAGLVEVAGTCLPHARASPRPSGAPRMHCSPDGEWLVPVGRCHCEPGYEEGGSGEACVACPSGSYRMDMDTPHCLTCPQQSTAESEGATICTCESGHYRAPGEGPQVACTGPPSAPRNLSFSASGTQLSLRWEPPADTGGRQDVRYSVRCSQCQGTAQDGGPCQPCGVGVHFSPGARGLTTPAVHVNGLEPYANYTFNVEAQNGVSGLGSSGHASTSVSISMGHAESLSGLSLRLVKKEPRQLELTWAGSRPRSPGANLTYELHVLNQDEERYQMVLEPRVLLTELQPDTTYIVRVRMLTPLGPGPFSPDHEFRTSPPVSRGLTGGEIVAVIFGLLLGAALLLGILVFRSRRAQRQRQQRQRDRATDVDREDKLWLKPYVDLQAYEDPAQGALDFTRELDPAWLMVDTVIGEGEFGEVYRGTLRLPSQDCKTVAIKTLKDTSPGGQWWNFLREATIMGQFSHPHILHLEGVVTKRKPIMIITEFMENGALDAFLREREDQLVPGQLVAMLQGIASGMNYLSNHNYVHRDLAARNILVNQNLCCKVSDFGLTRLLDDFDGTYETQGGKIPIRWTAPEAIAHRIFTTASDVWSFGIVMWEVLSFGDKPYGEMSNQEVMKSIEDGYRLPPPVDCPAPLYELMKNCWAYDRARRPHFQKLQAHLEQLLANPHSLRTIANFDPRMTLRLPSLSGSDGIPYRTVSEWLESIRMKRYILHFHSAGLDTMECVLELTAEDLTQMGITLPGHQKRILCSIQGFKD
Chain of ERBB4 (Q15303 26-1308): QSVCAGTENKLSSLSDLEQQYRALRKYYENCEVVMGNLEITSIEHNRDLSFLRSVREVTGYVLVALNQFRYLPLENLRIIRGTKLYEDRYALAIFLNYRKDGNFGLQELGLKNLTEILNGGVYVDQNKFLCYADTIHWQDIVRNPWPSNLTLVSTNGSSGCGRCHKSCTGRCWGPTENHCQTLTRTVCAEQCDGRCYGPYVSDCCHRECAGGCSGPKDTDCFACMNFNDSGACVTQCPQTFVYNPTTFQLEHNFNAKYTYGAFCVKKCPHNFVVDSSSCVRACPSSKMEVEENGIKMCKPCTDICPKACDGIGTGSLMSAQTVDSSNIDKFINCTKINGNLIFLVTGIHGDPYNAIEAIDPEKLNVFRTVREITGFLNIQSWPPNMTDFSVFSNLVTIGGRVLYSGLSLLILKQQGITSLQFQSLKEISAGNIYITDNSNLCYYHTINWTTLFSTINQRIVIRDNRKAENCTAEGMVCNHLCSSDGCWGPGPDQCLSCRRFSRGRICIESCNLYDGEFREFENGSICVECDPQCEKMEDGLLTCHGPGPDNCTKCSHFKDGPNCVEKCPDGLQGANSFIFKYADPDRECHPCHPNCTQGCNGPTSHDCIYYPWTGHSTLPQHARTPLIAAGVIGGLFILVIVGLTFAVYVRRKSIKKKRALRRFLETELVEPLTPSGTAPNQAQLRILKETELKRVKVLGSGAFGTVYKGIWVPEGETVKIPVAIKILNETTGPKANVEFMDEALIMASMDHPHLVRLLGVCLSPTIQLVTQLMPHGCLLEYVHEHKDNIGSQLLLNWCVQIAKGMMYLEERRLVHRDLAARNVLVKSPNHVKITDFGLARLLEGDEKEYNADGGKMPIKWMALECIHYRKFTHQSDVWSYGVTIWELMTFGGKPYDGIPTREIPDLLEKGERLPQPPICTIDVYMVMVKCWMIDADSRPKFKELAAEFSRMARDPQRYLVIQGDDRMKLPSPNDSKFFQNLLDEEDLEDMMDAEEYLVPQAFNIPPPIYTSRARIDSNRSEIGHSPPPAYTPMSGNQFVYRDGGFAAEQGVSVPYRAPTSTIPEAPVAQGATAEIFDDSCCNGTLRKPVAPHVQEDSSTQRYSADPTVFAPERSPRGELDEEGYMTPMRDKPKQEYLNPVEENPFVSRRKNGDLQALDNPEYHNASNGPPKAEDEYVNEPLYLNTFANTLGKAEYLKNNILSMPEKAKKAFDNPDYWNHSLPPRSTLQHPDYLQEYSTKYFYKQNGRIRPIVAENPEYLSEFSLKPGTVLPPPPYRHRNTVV
T17 sequence (P29597 whole entry, species assumed): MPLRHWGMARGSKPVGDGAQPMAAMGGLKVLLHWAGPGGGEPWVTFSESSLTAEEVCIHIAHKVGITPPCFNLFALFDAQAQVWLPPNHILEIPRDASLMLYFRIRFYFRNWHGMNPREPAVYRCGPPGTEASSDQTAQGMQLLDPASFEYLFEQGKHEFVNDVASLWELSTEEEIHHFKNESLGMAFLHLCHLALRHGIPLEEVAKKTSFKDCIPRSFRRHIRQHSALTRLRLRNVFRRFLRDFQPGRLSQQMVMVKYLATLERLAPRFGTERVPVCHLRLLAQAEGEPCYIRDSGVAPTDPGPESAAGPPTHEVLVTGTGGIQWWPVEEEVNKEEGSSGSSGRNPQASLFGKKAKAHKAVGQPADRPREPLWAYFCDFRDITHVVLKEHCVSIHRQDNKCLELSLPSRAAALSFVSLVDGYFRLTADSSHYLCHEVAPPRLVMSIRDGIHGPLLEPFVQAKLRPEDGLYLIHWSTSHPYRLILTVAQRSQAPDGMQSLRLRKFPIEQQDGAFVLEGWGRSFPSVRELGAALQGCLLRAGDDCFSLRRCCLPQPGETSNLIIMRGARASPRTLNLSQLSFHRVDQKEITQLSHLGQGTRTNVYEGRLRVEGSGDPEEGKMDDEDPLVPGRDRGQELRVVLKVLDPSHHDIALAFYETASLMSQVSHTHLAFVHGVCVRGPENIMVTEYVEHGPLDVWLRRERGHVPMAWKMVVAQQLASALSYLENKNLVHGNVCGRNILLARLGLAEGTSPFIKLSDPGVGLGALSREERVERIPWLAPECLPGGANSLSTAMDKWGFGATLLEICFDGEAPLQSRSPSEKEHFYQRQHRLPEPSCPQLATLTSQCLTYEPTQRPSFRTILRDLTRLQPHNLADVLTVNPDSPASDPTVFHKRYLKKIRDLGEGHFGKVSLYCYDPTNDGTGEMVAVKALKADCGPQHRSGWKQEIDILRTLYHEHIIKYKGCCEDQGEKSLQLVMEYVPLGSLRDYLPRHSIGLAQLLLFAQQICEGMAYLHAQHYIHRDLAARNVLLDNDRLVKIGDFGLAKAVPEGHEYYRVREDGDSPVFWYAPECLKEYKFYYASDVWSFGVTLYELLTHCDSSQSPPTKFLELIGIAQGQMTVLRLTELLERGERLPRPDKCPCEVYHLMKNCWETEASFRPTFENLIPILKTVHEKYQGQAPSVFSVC
Chain of LYN (P07948 whole entry): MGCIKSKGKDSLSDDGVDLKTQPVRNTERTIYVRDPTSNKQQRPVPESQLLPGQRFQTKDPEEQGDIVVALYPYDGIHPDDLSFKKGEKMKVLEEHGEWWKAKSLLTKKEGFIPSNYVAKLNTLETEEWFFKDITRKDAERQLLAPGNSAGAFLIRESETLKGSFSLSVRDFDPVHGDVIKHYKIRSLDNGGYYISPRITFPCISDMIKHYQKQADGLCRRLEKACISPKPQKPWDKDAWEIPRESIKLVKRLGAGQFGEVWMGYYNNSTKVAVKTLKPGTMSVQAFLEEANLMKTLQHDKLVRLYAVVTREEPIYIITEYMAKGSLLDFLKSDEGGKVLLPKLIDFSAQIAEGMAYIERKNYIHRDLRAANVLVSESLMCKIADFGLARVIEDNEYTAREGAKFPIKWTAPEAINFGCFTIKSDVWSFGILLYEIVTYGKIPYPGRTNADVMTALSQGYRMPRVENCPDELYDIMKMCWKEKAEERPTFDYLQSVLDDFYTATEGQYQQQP

CC1=C(CC(=O)/C=C/c2cccc(CO)c2)C(=O)C=C2C1=CC=C1[C@@]2(C)CC[C@@]2(C)C3C[C@](C)(C(=O)CCc4nc(C(O)C(O)O)c(C)nc4C)CC[C@]3(C)CC[C@]12C (some centres unmarked) [CP1]
> 30 µM: all assays above

Reference: PMC12325182, “Discovery of novel and potent celastrol derivatives as PRDX1 inhibitors for cancer therapy through structure-based virtual screening” (Frontiers in Pharmacology, 2025)
